In this test the target is T1, hCRTH2 (Homo sapiens, UniProt Q9Y5Y4).
T1 construct: expressed in transfected cells; host or cells: HEK (human embryonic kidney) cells expressing hCRTH2; membrane preparation
T1 sequence (Q9Y5Y4 1-395): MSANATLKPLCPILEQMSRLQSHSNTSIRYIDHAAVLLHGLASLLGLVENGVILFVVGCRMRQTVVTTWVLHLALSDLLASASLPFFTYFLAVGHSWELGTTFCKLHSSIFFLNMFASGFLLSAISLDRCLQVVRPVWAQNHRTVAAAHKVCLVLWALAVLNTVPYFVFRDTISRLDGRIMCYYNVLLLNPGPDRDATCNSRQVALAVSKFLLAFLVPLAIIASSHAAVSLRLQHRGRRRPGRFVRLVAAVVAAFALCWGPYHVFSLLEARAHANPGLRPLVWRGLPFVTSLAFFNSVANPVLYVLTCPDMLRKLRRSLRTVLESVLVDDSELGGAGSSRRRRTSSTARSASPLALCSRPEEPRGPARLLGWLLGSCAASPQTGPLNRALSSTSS
The experiment in a line: Radioligand binding assay ([3H]PGD2 competition, HEK-hCRTH2 membranes). Summed up:
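Using membranes of an HEK line stably carrying hCRTH2, ligands were tested against [3H]PGD2 (3.0 nM) in pH 7.4 Tris buffer containing 2 mM MnCl2 and 1 mM EDTA. After one hour at room temperature, filters were washed cold and counted.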

Setting [1] is: [3H]PGD2 binding, rated A-E (Table A).
[2] abbreviates: [3H]PGD2 binding, values in text.

What is called Ki is the equilibrium dissociation constant of an inhibitor or competing ligand from its target. Higher therefore signals lower affinity. Take `O=C(N[C@@H]1CCCc2cc(F)ccc21)c1ccc2nc(-c3ccc(F)cc3)c(CC[C@@H]3C[C@H]3C(=O)O)nc2c1` [compound 263, (1R,2R)-2-(2-(7-(((R)-6-fluoro-1,2,3,4-tetrahydronaphthalen-l-yl)carbamoyl)-3-(4-fluorophenyl)quinoxalin-2-yl)ethyl)cyclopropanecarboxylic acid]: for the setting “[3H]PGD2 competition, Table B”, the Ki is 2.1 to 20 nM.
Molecule `C[C@@]1(c2ccccc2)CCCN(C(=O)c2ccc3nc(-c4ccccc4)c(CCCCC(=O)O)nc3c2)C1` [compound 171, 7-[(3(S)-methyl-3-phenyl-1-piperidinyl)carbonyl]-3-phenyl-2-quinoxalinepentanoic acid] returned an inhibition constant Ki under setting [1] of 2.1 to 20 nM.
`O=C(O)CCCCc1nc2cc(C(=O)N3CCN(c4nnc(C5CC5)o4)CC3)ccc2nc1-c1ccc(Cl)cc1` [compound 685, 5-(3-(4-chlorophenyl)-7-(4-(5-cyclopropyl-1,3,4-oxadiazo1-2-yl)piperazine-1-carbonyl)quinoxalin-2-yl)pentanoic acid] had a Ki ([3H]PGD2 competition, Table B) of 20.1 to 200 nM.
As for `COc1ccc2c(c1)CCCC2NC(=O)c1ccc2nc(-c3ccc(Cl)cc3)c(CCCCC(=O)O)nc2c1` (stereo not shown) [compound 312, 5-(3-(4-chlorophenyl)-7((6-methoxy-1,2,3,4-tetrahydronaphthalen-1-yl)carbamoyl)quinoxalin-2-yl)pentanoic acid], where the note is “[3H]PGD2 competition, Table B”, the Ki was in the range of 2.1 to 20 nM.
`Cc1ccc(CNC(=O)c2ccc3nc(-c4ccccc4)c(CCCCC(=O)O)nc3c2)cc1` [15AW, 5-{7-[(4-methylbenzyl)carbamoyl]-3-phenylquinoxalin-2-yl}pentanoic acid] gave a Ki under setting [1] of 0.1 to 2 nM.
Where the note is “[3H]PGD2 competition, Table B”, `O=C(O)C1CCC(Cc2nc3cc(C(=O)N4CC(c5ccc(F)cc5)C4)ccc3nc2-c2ccc(Cl)cc2)C1` (stereo not shown) [compound 396, 3-((3-(4-chlorophenyl)-7-(3-(4-fluorophenyl)azetidine-1-carbonyl)quinoxalin-2-yl)methyl)cyclopentanecarboxylic acid] came in with a Ki of 2.1 to 20 nM.
On the same count and under the same terms, under `C[C@@H](CCc1nc2cc(C(=O)N3CCN(c4ccccc4)CC3)ccc2nc1-c1ccccc1)CC(=O)O` [compound 289, (S)-3-methyl-5-(3-phenyl-7-(4-phenylpiperazine-1-carbonyl)quinoxalin-2-yl)pentanoic acid] stands 20.1 to 200 nM; under `C[C@H]1CN(c2ccc(Cl)cc2)CCN1C(=O)c1ccc2nc(-c3ccc(F)cc3)c(CCCCC(=O)O)nc2c1` [compound 542, (S)-5-(7-(4-(4-chlorophenyl)-2-methylpiperazine-1-carbonyl)-3-(4-fluorophenyl)quinoxalin-2-yl)pentanoic acid], 2.1 to 20 nM.
Under setting [1], `O=C(O)CCCCc1nc2cc(C(=O)N3CC[C@H](c4ccccc4)C3)ccc2nc1-c1ccccc1` [compound 141, 3-phenyl-7-[(3(R)-phenyl-1-pyyrolidinyl)carbonyl]-2-quinoxalinepentanoic acid] had a Ki of 2.1 to 20 nM.
For `C[C@H](NC(=O)c1ccc2nc(-c3ccc(C(F)(F)F)cc3)c(CCCCC(=O)O)nc2c1)c1ccccn1` [compound 146, 7-[[[1(S)-(2-pyridinyl)ethyl]amino]carbonyl]-3-[4-(trifluoromethyl)phenyl]-2-quinoxalinepentanoic acid], the Ki was 20.1 to 200 nM under setting [1] and 132 nM under setting [2].
Regarding `C[C@H](NC(=O)c1ccc2nc(-c3ccc(Cl)cc3)c(CC3CCC(C(=O)O)C3)nc2c1)c1ccc(F)cc1` (stereo partly drawn) [compound 407, 3-((3-(4-chlorophenyl)-7-(((S)-1-(4-fluorophenyl)ethyl)carbamoyl)quinoxalin-2-yl)methyl)cyclopentane-carboxylic acid], the Ki ([3H]PGD2 competition, Table B) lay in the range of 2.1 to 20 nM.
Still for that read-out and setting: under `O=C(O)CCCCc1nc2cc(C(=O)N3CCN(c4ccncc4)CC3)ccc2nc1-c1ccc(Cl)cc1` [compound 594, 5-(3-(4-chlorophenyl)-7-(4-(pyridin-4-yl)piperazine-l-carbonyl)quinoxalin-2-yl)pentanoic acid] stands 201 to 700 nM.
The molecule `O=C(O)CCCCc1nc2cc(C(=O)N3CCC(c4ccccc4)CC3)ccc2nc1-c1cccc(Cl)c1` [26J, 3-(3-chlorophenyl)-7-[(4-phenyl-1-piperidinyl)carbonyl]-2-quinoxalinepentanoic acid] displayed a Ki under setting [1] of 0.1 to 2 nM.
`Cc1ccc([C@@]23C[C@@H]2CN(C(=O)c2ccc4nc(-c5ccc(Cl)cc5)c(CCCCC(=O)O)nc4c2)C3)cc1` [compound 285, 5-(3-(4-chlorophenyl)-7-((1R,5S)-1-(p-tolyl)-3 - azabicyclo[3.1.0]hexane-3-carbonyl)quinoxalin-2-yl)pentanoic acid]: for the setting “[3H]PGD2 competition, Table B”, the Ki was 2.1 to 20 nM.
Still for that read-out and setting: to `C[C@H](NC(=O)c1ccc2nc(-c3ccc(Cl)cc3)c(CCCCC(=O)O)nc2c1)c1ccc(F)c(F)c1` [compound 375, (S)-5-(3-(4-chlorophenyl)-7-((1-(3,4-difluorophenyl)ethyl)carbamoyl)quinoxalin-2-yl)pentanoic acid] belongs 0.1 to 2 nM; to `O=C(N[C@@H]1CCc2cc(F)ccc21)c1ccc2nc(-c3ccccc3)c(CCCC(F)(F)C(=O)O)nc2c1` [compound 468, (R)-2,2-difluoro-5-(7-((5-fluoro-2,3-dihydro-1H-inden-1-yl)carbamoyl)-3-phenylquinoxalin-2-yl)pentanoic acid], 2.1 to 20 nM.
Turning to `C[C@@H]1CN(c2ccccc2)CCN1C(=O)c1ccc2nc(-c3ccc(Cl)cc3)c(CCCCC(=O)O)nc2c1` [compound 498, (R)-5-(3-(4-chlorophenyl)-7-(2-methyl-4-phenyl-piperazine-1-carbonyl)quinoxalin-2-yl)pentanoic acid], for the setting “[3H]PGD2 competition, Table B”, the Ki was in the range of 2.1 to 20 nM.
Take `O=C(O)CCCCc1nc2cc(C(=O)NC3Cc4ccccc4C3)ccc2nc1-c1ccc(C(F)(F)F)cc1` [compound 150, 7-[[(2,3-dihydro-1H-inden-2-yl)amino]carbonyl]-3-[4-(trifluoromethyl)phenyl]-2-quinoxalinepentanoic acid]: the Ki under setting [1] lay in the range of 0.1 to 2 nM.
With `O=C(O)CCCOc1nc2cc(C(=O)N3CCc4ccccc4C3)ccc2nc1-c1ccccc1` [10F, 4-{[7-(3,4-dihydroiso-quinolin-2(1H)-ylcarbonyl)-3-phenylquinoxalin-2-yl]oxy} butanoic acid], the Ki under setting [1] was 2.1 to 20 nM.
For `O=C(O)CCCCc1nc2cc(NC(=O)Cc3ccc(C(F)(F)F)cc3)ccc2nc1-c1ccccc1` [11F, 5-[3-phenyl-7-({[4-(trifluoromethyl)phenyl]acetyl}amino)quinoxalin-2-yl]pentanoic acid], the Ki was 201 to 700 nM under setting [1] and 223 nM under setting [2].
In turn, `C[C@@H](c1ccccc1)N(C)C(=O)c1ccc2nc(-c3ccc(F)cc3)c(CCCCC(=O)O)nc2c1` [21C, -(4-fluorophenyl)-7-[[methyl(1(S)-phenylethyl)amino]carbonyl]-2-quinoxalinepentanoic acid] displayed a Ki under setting [1] of 2.1 to 20 nM.
Regarding `O=C(O)CCCc1nc2cc(C(=O)N[C@@H]3CCCc4ccccc43)ccc2nc1-c1ccccc1` [compound 724, (R)-4-(3-phenyl-7-((1,2,3,4-tetrahydronaphthalen-l-yl)carbamoyl)quinoxalin-2-yl)butanoic acid], the Ki ([3H]PGD2 competition, Table B) was in the range of 201 to 700 nM.
Molecule `O=C(O)CCCCc1nc2cc(C(=O)N3CCCC3c3ccccc3)ccc2nc1-c1ccccc1` (stereo not shown) [15AL, 5-{3-phenyl-7-[(2-phenylpyrrolidin-1-yl)carbonyl]quinoxalin-2-yl}pentanoic acid] gave a Ki under setting [1] of 0.1 to 2 nM.
Molecule `NC(=O)c1ccc2nc(-c3ccccc3)c(CCCCC(=O)O)nc2c1` [compound 144, 5-(7-carbamoyl-3-phenylquinoxalin-2-yl)pentanoic acid] displayed a Ki under setting [1] of 20.1 to 200 nM and a Ki under setting [2] of 118 nM.
Take `CCCCN(CCC)C(=O)c1ccc2nc(-c3ccc(Cl)cc3)c(CCCCC(=O)O)nc2c1` [compound 611, 5-(7-(butyl(propyl)carbamoyl)-3-(4-chlorophenyl)quinoxalin-2-yl)pentanoic acid]: the Ki ([3H]PGD2 competition, Table B) lay within 2.1 to 20 nM.
`O=C(N[C@@H]1CCCc2ccccc21)c1ccc2nc(-c3ccccc3)c(CCCC(F)C(=O)O)nc2c1` (single isomer, unassigned) [38B] displayed a Ki under setting [1] of 20.1 to 200 nM.
Turning to `O=C(O)CCCCc1nc2cc(C(=O)N3CCCC(c4ccccc4)C3)ccc2nc1-c1ccccc1` (stereo not shown) [15Y, 5-{3-phenyl-7-[(3-phenylpiperidin-1-yl)carbonyl]quinoxalin-2-yl}pentanoic acid], the Ki under setting [1] fell in the range of 0.1 to 2 nM.
The same measure, in the same setting: under `CN(C(=O)c1ccc2nc(-c3ccccc3)c(CCCCC(=O)O)nc2c1)C1CCOC1` (stereo not shown) [15Bo, 5-{7-[methyl (tetrahydrofuran-3-yl)carbamoyl]-3-phenylquinoxalin-2-yl} pentanoic acid] stands 20.1 to 200 nM.
The molecule `C[C@@H](NC(=O)c1ccc2nc(-c3ccc(Cl)cc3)c(CCC(=O)O)nc2c1)c1ccc(F)cc1` [compound 418, (R)-3-(3-(4-chlorophenyl)-7-((1-(4-fluorophenyl)ethyl)carbamoyl)quinoxalin-2-yl) propanoic acid] yielded a Ki ([3H]PGD2 competition, Table B) of 20.1 to 200 nM.
The molecule `O=C(O)CCCCc1nc2cc(C(=O)N[C@H](c3ccccc3)C(F)(F)F)ccc2nc1-c1ccc(Cl)cc1` [16AH, 3-(4-chlorophenyl)-7-[[(2,2,2-trifluoro-1(R)-phenylethyl)amino]carbonyl]-2-quinoxalinepentanoic acid] showed a Ki under setting [1] of 2.1 to 20 nM.
On the same count and under the same terms, to `COc1ccc(-c2nc3ccc(C(=O)N[C@H](C)c4ccc(F)cc4)cc3nc2CCCCC(=O)O)cc1` [compound 214, 7-[[[1(R)-(4-fluorophenyl)ethyl]amino]carbonyl]-3-(4-methoxyphenyl)-2-quinoxalinepentanoic acid] belongs 0.1 to 2 nM.

(Values after patent publication US9469615B2, “Quinoxalines and AZA-quinoxalines as CRTH2 receptor modulators” (Merck Sharp & Dohme Corp., priority 2010, dated 2016).)
